Reference: publication PMC4838890, “Dynamic and flexible H3K9me3 bridging via HP1β dimerization establishes a plastic state of condensed chromatin” (Nature Communications, 2016)
Entries after “also recorded” stand apart in the source; their conditions may differ. Like-named read-outs stand apart in the source and are kept apart here.

Tests used:
H3KC9me3 peptide = assay: ITC, H3KC9me3 peptide; format: binding; details: for Kd: ITC, pH 7.5, 25°C, read-out: Kd (apparent dissociation constant)
Description: ITC measurements were performed on a iTC200 calorimeter (Microcal, Malvern, UK) at 25°C in binding buffer (10 mM triethanolamine (pH 7.5), 20 or 150 mM NaCl, 0.1 mM EDTA). Reaction heats were recorded by sequences of 37 injections of 1.8 mM hHP1β, spaced at 120 s intervals, into 250 μl of 60 μM H3 peptides, nucleosomes or oligonucleosomal arrays under constant stirring at 1,000 r.p.m. (injection #1–10: 0.5 μl each; injection #11–32: 1 μl each; injection #33–37: 2 μl each). Heats of dilution, obtained by the titration of hHP1β into buffer, were substracted from raw data before analysis. Raw data were integrated, normalized and the apparent heat change (Δq) of the reaction was plotted against the molecular ratio using the Origin software. For the determination of apparent enthalpy changes (ΔHapp), the molar association constant (KA), and the stoichiometry (n) of the interaction, non-linear least-square fitting of the Δq values was performed by the Origin software using a binding model of one set of identical binding sites.
(§1) Supplementary Table 1: Summary of conditions used in the different experiments of this study. experiment result modification template Temp. [NaCl] [MgCl2] […]
(§2) chromatin Fig. 1e,f; Fig. S1f-h; H3K9me3 oligo- 4 150 5 coprecipitation Fig. S2b nucleosomes
(§3) Fig. S7d,f; Fig.S9c nucleosomes […]
(§4) chromatin sedimentation Fig. 4a; H3K9me3 oligo- 4 150 0
(§5) (single point) Fig. S3b nucleosomes […]
(§6) chromatin sedimentation. oligo-(titration) Fig. 3a H3K9me3 nucleosomes 4 150 0

[1] = target: fluorescein-labeled H3K9me3-peptide; assay: Fluorescence polarization (FP), H3K9me3 peptide; format: binding; details: 150 mM NaCl, 10 mM triethanolamine pH 7.4, 0.1 mM EDTA, 2 mM DTT, 4°C, read-out: apparent Kd
Description: Experiments were performed in 10 mM triethanolamine HCl (pH 7.4), 150 mM NaCl, 0.1 mM EDTA, 2 mM DTT. Titration series of 10 μl volume in 384-well plates were read multiple times on a Plate CHAMELEON II plate reader (HIDEX Oy, Turku, Finland). Multiple readings and independent titration series were averaged after data normalization. […]
hHP1β) using mass spectrometry. For detailed listing of the identified crosslinks see Supplementary […]
(c) Binding of the indicated hHP1β wild type (WT) and mutant proteins to a fluorescein-labeled H3K9me3-peptide was analyzed by FP at 150 mM NaCl. Apparent Kd deduced from the fitted curves are […]
(d) Chromatin coprecipitation of hHP1β WT and mutant proteins with oligonucleosomes. Precipitated material was run on SDS-PAGE and stained with Coomassie Blue. Input, 10 %.
(e) Oligonucleosomes at 2.5 nM were incubated with hHP1β wild type (WT) or mutant proteins at 5 µM and 150 mM NaCl (saturating conditions). DNA remaining in the supernatant after centrifugation was incubated with EtBr and measured by fluorescence reading. Data were n ormalized to DNA levels present in the input. […]
(g) Oligonucleosomes at 6.7 nM were incubated with hHP1β wild type (WT) or mutant proteins at 5 µM and 100 mM NaCl (non-saturating conditions). DNA remaining in the supernatant after centrifugation was incubated with EtBr and measured by fluorescence reading. […]

[2] = tested on: H3K9me3 oligonucleosomes in the absence of the H4 N-terminal tail; assay: Chromatin coprecipitation, H3K9me3 oligonucleosomes with tailless H4; format: binding, Xenopus laevis; details: 150 mM NaCl, western blot
Description: […] Precipitated chromatin complexes were recovered by centrifugation at 16,100g for 30 min at 4°C. Pellets were washed once with 0.5 ml binding buffer and centrifuged for 15 min at 4 °C. Precipitated material was resuspended in 10 μl 1 × SDS loading buffer and boiled for 5 min before running on SDS–PAGE.
(§7) Supplementary Table 1: Summary of conditions used in the different experiments of this study.
(§8) experiment result modification template Temp. [NaCl] [MgCl2]
(§9) chromatin Fig. 1e,f; Fig. S1f-h; H3K9me3 oligo- 4 150 5

[3] = tested on: immobilized H3 tail peptides, mono- and oligonucleosomes; assay: Pull-down, H3 tail peptides, mono- and oligonucleosomes; format: binding, Xenopus laevis; details: immobilized on streptavidin beads, 4°C
Description: 4 μg C-terminally biotinylated histone H3 peptides (aa 1–20) or 1 μg of biotinylated nucleosomes or oligonucleosomal arrays were incubated with 40 μl Streptavidin MagnaSphere Paramagmetic beads (Promega, Mannheim, Germany) in 350 μl binding buffer (10 mM triethanolamine (pH 7.5), 150 mM NaCl, 0.1 mM EDTA, 0.1% (v/v) Triton-X100) supplemented with 1 mg ml^−1 BSA for 2.5 h at RT. Unbound material was removed by three washes with 0.5 ml binding buffer. Charged beads were then incubated with 100 pmol recombinant protein in 350 μl binding buffer for 1 h at 4°C on a rotator. Beads were washed three times with 0.5 ml binding buffer for 3 min per wash at 4°C. Bound proteins were eluted in 20 μl 1 × SDS loading buffer and by boiling for 5 min.
as §1, §2, §3, §4, §5, §6

[4] = Multimerization beyond dimer; format: physicochemical; details: dynamic light scattering, SAXS, protein cross-linking, nuclear magnetic resonance
[5] = tested on: H3KC9me3 oligonucleosomes; assay: Chromatin coprecipitation, H3KC9me3 oligonucleosomes; format: binding, Xenopus laevis
Description: 6.7 nM oligonucleosomes were incubated with 1 μM recombinant protein in 100 μl binding buffer (10 mM triethanolamine (pH 7.5), 150 mM NaCl, 5 mM MgCl2, 0.1 mM EDTA, 0.1% (v/v) Triton-X100) for 1 h on ice. Precipitated chromatin complexes were recovered by centrifugation at 16,100g for 30 min at 4°C. Pellets were washed once with 0.5 ml binding buffer and centrifuged for 15 min at 4 °C. Precipitated material was resuspended in 10 μl 1 × SDS loading buffer and boiled for 5 min before running on SDS–PAGE.
as §7, §8, §9

self-dimerization = details: ref [9][20]; read-out: dimerization Kd in solution; cited from earlier work
Description: To test this hypothesis, we analysed an hHP1β chimera where the CSD was replaced with an unrelated dimerization module. We used glutathione S-transferase (GST), as it is known to form dimers of similar strength as hHP1β WT in solution (Kd<1 nM)[9][20].

## hHP1β WT: recombinant human heterochromatin protein 1β (GenBank NM_001127228), 185 aa
H3KC9me3 peptide; 20 mM NaCl
  Kd: 11 ± 4 µM
H3KC9me3 peptide; 150 mM NaCl
  Kd: 21 ± 3 µM
H3KC9me3 peptide; Table 1, ref [17]
  reduced binding to H3-tail peptide containing H3KC9me compared with methylated lysine: sixfold reduced binding
[1]
  Kd: 5 ± 2 µM
[2]
  recovery at 3.5 mM and 7.0 mM MgCl2 with tailless H4 chromatin: reduced recovery of hHP1β with H3K9me3 oligonucleosomes in the absence of the H4 N-terminal tail at 3.5 mM MgCl2; also recorded: recovery at 7.0 mM MgCl2 was comparable to the level obtained with H3K9me3 oligonucleosomes containing WT core histones
[3]
  retention on H3K9me3 versus unmodified matrices: retained much more efficiently on all three matrices in the presence of H3K9me3
[4]
  multimerization beyond CSD-mediated dimerization: failed to detect any multimerization of hHP1β beyond CSD-mediated dimerization
[5]; 6.7 nM oligonucleosomes, 1 μM protein, 150 mM NaCl, 5 mM MgCl2
  recovery with H3KC9me3 oligonucleosomes: bound specifically to H3K9me3 oligonucleosomes irrespective of the saturation level of the chromatin template
[5]; saturating protein concentrations
  molecules bound per nucleosome: two
self-dimerization
  Kd: < 0.001 µM
